Test results reported in ChEMBL document CHEMBL5465560, “Selectivity Literature for EUbOPEN Chemogenomic Library” (2024).

Columns and labels:
[1] = biological target: Mitogen-activated protein kinase kinase kinase kinase 5 (Homo sapiens) (UniProt Q9Y4K4); assay: Selectivity interaction (ProQinase) EUB0000171b MAP4K5
[2] = biological target: Ribosomal protein S6 kinase alpha-3 (Homo sapiens, UniProt P51812); assay: Selectivity interaction (KinomeScan (DiscoverX)) EUB0001079a RPS6KA3; conditions: at 1 µM
[3] = biological target: T1, Cytoplasmic tyrosine-protein kinase BMX (Homo sapiens) (UniProt P51813); assay: Selectivity interaction (Millipore kinase profiler) EUB0000124b BMX; conditions: at 10 µM
T1 sequence (whole entry): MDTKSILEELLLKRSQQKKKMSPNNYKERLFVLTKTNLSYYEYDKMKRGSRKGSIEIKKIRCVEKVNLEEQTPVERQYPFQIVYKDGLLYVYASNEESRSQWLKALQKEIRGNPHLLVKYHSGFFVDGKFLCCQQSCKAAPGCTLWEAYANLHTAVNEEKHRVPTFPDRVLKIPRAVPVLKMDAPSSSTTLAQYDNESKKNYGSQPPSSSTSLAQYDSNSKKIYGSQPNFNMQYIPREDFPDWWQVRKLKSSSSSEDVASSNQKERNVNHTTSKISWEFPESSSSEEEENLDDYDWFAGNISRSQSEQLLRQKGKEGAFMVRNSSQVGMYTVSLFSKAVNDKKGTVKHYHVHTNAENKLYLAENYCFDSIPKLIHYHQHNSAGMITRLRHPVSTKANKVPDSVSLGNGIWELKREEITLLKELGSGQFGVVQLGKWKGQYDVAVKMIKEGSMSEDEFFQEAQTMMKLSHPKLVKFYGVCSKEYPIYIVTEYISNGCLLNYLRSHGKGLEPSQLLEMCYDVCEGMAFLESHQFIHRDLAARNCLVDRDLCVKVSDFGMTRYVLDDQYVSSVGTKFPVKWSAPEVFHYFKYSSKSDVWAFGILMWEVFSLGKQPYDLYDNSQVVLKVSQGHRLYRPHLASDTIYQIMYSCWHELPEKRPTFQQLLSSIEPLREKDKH

[4] = biological target: Tyrosine-protein kinase Fgr (Homo sapiens) (UniProt P09769); assay: Selectivity interaction (KinomeScan (DiscoverX)) EUB0000607a FGR; conditions: at 10 µM
[5] = biological target: Mitogen-activated protein kinase kinase kinase kinase 4 (Homo sapiens, UniProt O95819); assay: Selectivity interaction (KinomeScan (DiscoverX)) EUB0001619a MAP4K4; conditions: at 1 µM
[6] = biological target: T2, Phosphatidylinositol 3-kinase C2 domain-containing subunit gamma (Homo sapiens) (UniProt O75747); assay: Selectivity interaction (KinomeScan (DiscoverX)) EUB0001619a PIK3C2G; conditions: at 1 µM
T2 sequence (whole entry): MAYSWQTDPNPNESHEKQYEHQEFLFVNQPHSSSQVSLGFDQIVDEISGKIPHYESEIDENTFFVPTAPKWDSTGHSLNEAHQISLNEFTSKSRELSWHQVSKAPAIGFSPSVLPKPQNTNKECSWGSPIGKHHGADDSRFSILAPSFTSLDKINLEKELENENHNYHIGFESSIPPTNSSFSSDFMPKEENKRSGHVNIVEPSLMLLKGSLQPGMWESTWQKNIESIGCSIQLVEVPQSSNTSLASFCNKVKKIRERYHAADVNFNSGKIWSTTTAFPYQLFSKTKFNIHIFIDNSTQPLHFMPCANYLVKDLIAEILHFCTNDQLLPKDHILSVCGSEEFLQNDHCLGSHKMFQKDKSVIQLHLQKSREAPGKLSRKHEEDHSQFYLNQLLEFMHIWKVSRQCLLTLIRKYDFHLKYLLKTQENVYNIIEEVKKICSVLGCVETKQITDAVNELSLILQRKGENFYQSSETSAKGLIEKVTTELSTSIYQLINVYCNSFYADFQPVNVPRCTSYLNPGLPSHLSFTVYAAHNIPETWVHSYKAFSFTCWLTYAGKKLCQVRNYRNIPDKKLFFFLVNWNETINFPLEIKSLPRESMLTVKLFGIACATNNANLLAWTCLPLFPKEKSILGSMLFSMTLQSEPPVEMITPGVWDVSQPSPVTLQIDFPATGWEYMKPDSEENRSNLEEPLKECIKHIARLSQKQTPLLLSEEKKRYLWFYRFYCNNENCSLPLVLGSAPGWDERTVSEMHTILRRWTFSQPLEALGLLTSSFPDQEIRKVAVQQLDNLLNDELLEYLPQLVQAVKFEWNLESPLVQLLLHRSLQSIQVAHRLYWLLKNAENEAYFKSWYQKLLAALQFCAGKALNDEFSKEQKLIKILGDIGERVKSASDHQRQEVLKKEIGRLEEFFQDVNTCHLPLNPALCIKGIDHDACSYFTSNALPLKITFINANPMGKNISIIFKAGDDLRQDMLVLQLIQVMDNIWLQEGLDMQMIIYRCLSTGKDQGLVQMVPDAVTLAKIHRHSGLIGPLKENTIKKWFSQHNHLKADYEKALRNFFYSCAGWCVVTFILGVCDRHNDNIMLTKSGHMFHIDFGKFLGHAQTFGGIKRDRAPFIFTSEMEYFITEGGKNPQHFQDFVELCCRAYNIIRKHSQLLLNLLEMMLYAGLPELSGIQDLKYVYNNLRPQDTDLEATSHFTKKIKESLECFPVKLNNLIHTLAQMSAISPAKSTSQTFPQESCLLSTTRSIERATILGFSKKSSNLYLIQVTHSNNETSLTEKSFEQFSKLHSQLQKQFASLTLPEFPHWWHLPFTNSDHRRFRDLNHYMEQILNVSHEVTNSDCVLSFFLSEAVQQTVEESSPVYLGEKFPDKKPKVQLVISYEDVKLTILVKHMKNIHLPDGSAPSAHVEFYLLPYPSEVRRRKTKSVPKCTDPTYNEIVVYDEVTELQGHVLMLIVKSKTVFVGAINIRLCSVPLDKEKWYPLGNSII

Chain of Mitogen-activated protein kinase kinase kinase kinase 5 (Homo sapiens) (Q9Y4K4 whole entry, looked up): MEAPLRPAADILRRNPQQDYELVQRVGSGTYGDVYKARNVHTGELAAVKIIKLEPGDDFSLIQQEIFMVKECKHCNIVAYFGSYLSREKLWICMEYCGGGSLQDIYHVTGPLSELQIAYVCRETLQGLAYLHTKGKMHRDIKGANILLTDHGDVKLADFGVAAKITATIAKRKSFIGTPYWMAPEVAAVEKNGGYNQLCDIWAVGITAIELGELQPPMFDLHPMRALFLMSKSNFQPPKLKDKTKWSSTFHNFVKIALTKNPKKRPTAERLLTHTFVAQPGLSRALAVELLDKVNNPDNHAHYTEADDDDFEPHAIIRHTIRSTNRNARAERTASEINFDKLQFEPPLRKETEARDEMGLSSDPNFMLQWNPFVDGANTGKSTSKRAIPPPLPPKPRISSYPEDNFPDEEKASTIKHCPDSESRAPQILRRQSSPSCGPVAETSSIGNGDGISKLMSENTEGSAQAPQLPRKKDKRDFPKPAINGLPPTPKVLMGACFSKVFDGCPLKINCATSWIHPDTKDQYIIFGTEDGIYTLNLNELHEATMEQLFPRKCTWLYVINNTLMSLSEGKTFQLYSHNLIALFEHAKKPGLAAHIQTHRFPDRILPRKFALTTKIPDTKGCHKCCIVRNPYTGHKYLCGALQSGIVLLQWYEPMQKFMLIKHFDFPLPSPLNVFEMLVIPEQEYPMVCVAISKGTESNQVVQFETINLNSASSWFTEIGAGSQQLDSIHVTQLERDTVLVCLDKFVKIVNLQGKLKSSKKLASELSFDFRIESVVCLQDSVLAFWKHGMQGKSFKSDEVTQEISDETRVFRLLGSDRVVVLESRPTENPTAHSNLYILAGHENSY
Chain of Tyrosine-protein kinase Fgr (Homo sapiens) (P09769 2-529 limits assumed): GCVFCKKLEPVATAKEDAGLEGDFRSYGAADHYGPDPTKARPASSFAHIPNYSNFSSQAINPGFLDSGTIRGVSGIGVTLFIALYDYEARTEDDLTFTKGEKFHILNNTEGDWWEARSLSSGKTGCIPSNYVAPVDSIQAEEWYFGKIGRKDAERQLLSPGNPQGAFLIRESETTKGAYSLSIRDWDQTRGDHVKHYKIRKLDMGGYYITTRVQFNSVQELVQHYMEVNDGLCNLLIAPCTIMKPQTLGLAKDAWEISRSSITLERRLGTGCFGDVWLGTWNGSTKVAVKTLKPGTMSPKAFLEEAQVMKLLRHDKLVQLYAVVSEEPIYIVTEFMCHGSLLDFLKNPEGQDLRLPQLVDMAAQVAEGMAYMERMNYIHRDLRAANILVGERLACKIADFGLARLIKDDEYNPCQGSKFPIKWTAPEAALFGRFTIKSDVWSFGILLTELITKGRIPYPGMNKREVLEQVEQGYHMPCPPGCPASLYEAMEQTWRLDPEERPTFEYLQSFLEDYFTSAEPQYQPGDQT
Chain of Ribosomal protein S6 kinase alpha-3 (P51812 whole entry): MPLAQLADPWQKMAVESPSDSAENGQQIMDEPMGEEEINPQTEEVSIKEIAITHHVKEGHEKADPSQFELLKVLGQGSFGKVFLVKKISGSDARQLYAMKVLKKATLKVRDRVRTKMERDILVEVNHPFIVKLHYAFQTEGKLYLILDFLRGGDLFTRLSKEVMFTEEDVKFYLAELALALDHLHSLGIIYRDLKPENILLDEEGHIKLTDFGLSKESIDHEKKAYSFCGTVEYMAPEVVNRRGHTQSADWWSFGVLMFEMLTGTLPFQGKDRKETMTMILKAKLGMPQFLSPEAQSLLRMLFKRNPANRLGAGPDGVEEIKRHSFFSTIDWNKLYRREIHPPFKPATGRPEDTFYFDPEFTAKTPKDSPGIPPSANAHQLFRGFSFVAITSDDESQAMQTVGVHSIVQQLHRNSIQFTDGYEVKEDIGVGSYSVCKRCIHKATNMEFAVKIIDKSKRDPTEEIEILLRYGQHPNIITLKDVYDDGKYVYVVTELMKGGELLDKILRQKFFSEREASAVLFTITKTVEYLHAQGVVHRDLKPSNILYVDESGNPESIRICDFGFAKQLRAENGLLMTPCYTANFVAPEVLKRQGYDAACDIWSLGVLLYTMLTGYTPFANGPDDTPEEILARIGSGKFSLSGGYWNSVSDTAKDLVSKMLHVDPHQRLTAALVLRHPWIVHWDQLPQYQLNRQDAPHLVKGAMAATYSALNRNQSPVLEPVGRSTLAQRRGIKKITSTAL
Chain of Mitogen-activated protein kinase kinase kinase kinase 4 (O95819 2-1239 limits assumed): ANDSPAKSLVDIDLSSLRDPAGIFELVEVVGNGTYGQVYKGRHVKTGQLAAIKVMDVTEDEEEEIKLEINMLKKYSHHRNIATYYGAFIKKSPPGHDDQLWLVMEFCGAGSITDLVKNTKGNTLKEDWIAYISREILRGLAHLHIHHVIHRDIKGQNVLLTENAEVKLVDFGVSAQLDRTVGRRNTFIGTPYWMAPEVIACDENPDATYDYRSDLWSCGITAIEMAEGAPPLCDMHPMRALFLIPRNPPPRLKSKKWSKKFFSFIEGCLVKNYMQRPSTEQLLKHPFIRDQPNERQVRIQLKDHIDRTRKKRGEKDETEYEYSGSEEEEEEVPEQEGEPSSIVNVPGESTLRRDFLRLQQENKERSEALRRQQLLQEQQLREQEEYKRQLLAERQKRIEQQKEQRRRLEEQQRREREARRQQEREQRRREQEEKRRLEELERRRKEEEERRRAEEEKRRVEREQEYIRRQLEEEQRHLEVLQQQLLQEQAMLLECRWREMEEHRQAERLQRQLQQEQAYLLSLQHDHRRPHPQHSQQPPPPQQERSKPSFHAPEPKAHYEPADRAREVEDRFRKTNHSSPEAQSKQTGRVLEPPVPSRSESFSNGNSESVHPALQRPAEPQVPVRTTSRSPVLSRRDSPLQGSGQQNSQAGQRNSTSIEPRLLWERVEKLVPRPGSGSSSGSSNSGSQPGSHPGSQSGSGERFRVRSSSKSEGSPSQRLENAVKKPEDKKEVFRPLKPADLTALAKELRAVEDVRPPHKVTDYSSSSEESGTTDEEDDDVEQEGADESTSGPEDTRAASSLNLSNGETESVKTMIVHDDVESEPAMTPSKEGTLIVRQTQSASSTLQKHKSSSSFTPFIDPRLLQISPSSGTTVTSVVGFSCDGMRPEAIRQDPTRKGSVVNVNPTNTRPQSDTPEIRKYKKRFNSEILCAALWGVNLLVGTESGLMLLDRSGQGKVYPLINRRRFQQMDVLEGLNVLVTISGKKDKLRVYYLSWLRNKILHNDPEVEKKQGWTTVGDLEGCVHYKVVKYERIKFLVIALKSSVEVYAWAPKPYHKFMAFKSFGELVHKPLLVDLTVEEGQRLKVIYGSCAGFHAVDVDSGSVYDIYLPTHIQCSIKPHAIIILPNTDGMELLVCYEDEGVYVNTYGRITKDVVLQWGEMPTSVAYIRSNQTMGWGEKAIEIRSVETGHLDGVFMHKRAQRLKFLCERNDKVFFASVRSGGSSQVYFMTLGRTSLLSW

Work on `C=CC(=O)Nc1cccc(C(=O)Nc2ccc(Nc3cc(-c4[nH]c(SC)nc4C)ccn3)cc2)c1` yielded a % of control ([1]; at 1 µM) of 71% and a % of control ([1]; at 5 µM) of 49%.

With `Nc1cnc(N2CCc3cc(S(=O)(=O)Nc4c(F)cc(Cl)cc4F)cc(N4CCCC4=O)c32)nc1` [TP-020n] the % of control [2] was 100%.

In the case of `CC(=O)Nc1cccc(-n2c(=O)n(C3CC3)c(=O)c3c(Nc4ccc(I)cc4F)n(C)c(=O)c(C)c32)c1`, the % of control [3] is reported as 93%.

In the case of `CNC(=O)Nc1ccc(-c2nc(N3CC4CCC(C3)O4)c3cnn(C4CCC5(CC4)OCCO5)c3n2)cc1`, the % of control [4] is reported as 100%.

`N#Cc1cccc(-c2c[nH]c3ncnc(N4CCOCC4)c23)c1` showed a % of control [5] of 71% and a % of control [6] of 100%.
